Results from patent US10301257B2, “Use of acylsulfonamides for improving plant yield” (BAYER INTELLECTUAL PROPERTY GMBH, priority 2011, dated 2019).

Key:
Assay type in all cases: in vivo
[1] = system: corn; assay: Field trial: grain yield of corn, postemergence application of Cyprosulfamide
Source text: (§1) The trials have been carried out under natural field conditions (plot trials, 10 square meter plots, 2-4 replications).
(§2) The applications have been done with seed treatment, pre- or post-emergence treatments straight (alone, 1 application) or sequential treatments e.g. seed treatment followed by pre-emergence and/or post-emergence spray applications. The pre- or post-emergence applications were made with spray applications using 100-300 I/water per hectare. The growth stage of the crops species at the time of application are reported in the result tables. The dose rates of the herbicidal active ingredients applied alone respective in sequential application are also described in the result tables.
(§3) The assessments have been done via visual ratings (0-100% scale) or counting. The trials have been harvested after crops reached the full maturity. After the harvest the total weight of kernels/seeds/beets per plot was measured. The results are reported as means over 2-4 replications. The time between applications and assessments or countings/harvest are described in the result tables as well.

[2] = system: spring wheat; assay: Field trial: gluten content of spring wheat grains, postemergence application of Cyprosulfamide; details: 35 days after application
Source text: as §1, §2, §3

[3] = system: corn (maize); assay: Field trial: grain yield of corn (maize) after seed treatment with Cyprosulfamide; details: for Difference(%) vs. UTC / Relative %: corn (maize) grain yield; for Relative %: UTC = 100%; for Yield (grain yield at harvest): corn (maize), seed treatment prior planting, 110 days after planting (short season variety)
Source text: (§4) The trials have been carried out under natural field conditions (plot trials, 10 square meter plots, 2-4 replications). The applications have been done with seed treatment, pre- or post-emergence treatments straight (alone, 1 application) or sequential treatments e.g. seed treatment followed by pre-emergence and/or post-emergence spray applications. The pre- or post-emergence applications were made with spray applications using 100-300 I/water per hectare. The growth stage of the crops species at the time of application are reported in the result tables. The dose rates of the herbicidal active ingredients applied alone respective in sequential application are also described in the result tables. The assessments have been done via visual ratings (0-100% scale) or counting. The trials have been harvested after crops reached the full maturity. After the harvest the total weight of kernels/seeds/beets per plot was measured. The results are reported as means over 2-4 replications. The time between applications and assessments or countings/harvest are described in the result tables as well. The active ingredients have been applied to the untreated, dry seeds together with a carrier. After a short period of time to let the seeds dry, they were ready to be sown in the pot or field using standard equipments.

[4] = system: winter wheat; assay: Field trial: grain yield (g/1000 kernel) of winter wheat, seed treatment with Cyprosulfamide; details: 1 g ai/kg seed
Source text: as §4

[5] = system: rice plants; assay: Field trial: germination and emergence of rice plants after seed treatment with Cyprosulfamide
Source text: as §4

[6] = system: canola; assay: Field trial: grain yield of canola, postemergence treatment with Cyprosulfamide
Source text: as §1, §2, §3

[7] = system: winter wheat; assay: Field trial: grain yield of winter wheat, preemergence application of Cyprosulfamide
Source text: as §1, §2, §3

[8] = system: rice; assay: Field trial: grain yield of rice, sequential application of Cyprosulfamide
Source text: as §4

[9] = system: canola; assay: Field trial: grain yield of canola, sequential application of Cyprosulfamide
Source text: as §4

[10] = system: corn; assay: Field trial: grain yield of corn, sequential application of Cyprosulfamide
Source text: as §4

[11] = system: corn; assay: Field trial: biomass yield and plant density of corn, sequential application of Cyprosulfamide; details: 0.15 g ai/kg seed fb 3 × 50 g ai/ha post, 98 days after emergence
Source text: as §4

[12] = system: spring wheat; assay: Field trial: grain yield of spring wheat, postemergence application of Cyprosulfamide
Source text: as §1, §2, §3

[13] = system: soybeans; assay: Field trial: grain yield of soybeans, postemergence application of Cyprosulfamide; details: 100 g ai/ha
Source text: as §1, §2, §3

[14] = system: cotton; assay: Field trial: lint yield of cotton, postemergence application of Cyprosulfamide; details: 100 g ai/ha
Source text: as §1, §2, §3

[15] = system: sugarbeet; assay: Field trial: sugar and beet yield of sugarbeet, sequential application of Cyprosulfamide; details: 0.15 mg ai/seed fb 3 × 50 g ai/ha post, 44 days after last postemergence treatment
Source text: as §4

[16] = system: spring wheat; assay: Field trial: grain yield of spring wheat, postemergence cyprosulfamide (CPA) + epoxiconazole (EPC)
Source text: as §1, §2, §3

[17] = system: spring oilseed rape (canola); assay: Field trial: grain yield of spring oilseed rape (canola), postemergence CPA + tebuconazole (TBC)
Source text: as §1, §2, §3

SMILES: COc1ccccc1C(=O)NS(=O)(=O)c1ccc(C(=O)NC2CC2)cc1 [Cyprosulfamide, cyprosulfamide]
- Difference(%) vs. UTC ([1]; corn grain yield, 100 g ai/ha postemergence): +28%
- Relative ([1]; corn grain yield, 100 g ai/ha postemergence, UTC = 100%): 128%
- Yield (grain yield at harvest) ([1]; corn, postemergence at 6-8 leaves, 100 g ai/ha, 130 days after application): 5.60 t/ha
- Yield Relative: relative gluten content in harvested grains ([2]; 100 g ai/ha at ear emergence, UTC = 100%): 109%
- Yield: gluten content (absolute) in harvested grains ([2]; postemergence at ear emergence, 100 g ai/ha): 30.9
- Difference(%) vs. UTC ([3]; 0.15 mg ai/seed): +12%
- Relative % ([3]; 0.15 mg ai/seed): 112%
- Difference(%) vs. UTC ([3]; 0.225 mg ai/seed): +13%
- Relative % ([3]; 0.225 mg ai/seed): 113%
- Yield (grain yield at harvest) ([3]; 0.15 mg ai/seed): 8.32 t/ha
- Yield (grain yield at harvest) ([3]; 0.225 mg ai/seed): 8.39 t/ha
- Difference(%) vs. UTC ([4]; winter wheat g/1000 kernel): +8%
- Relative ([4]; winter wheat g/1000 kernel, UTC = 100%): 108%
- Yield (grain yield at harvest) ([4]; winter wheat, seed treatment prior planting, 290 days after planting): 39.2 g/1000 kernel
- Difference(%) vs. UTC ([5]; rice plants/10 m^2, 0.5 g ai/kg seed): +23%
- Relative ([5]; rice plants/10 m^2, 0.5 g ai/kg seed, UTC = 100%): 123%
- plants/10 m^2 (germination and emergence) ([5]; rice, seed treatment 0.5 g ai/kg seed, 12 days after emergence): 208 plants/10 m^2
- Difference(%) vs. UTC ([6]; canola grain yield, 100 g ai/ha postemergence): +19%
- Relative ([6]; canola grain yield, 100 g ai/ha postemergence, UTC = 100%): 119%
- Yield (grain yield at harvest) ([6]; canola, postemergence GS 52 pre flowering, 100 g ai/ha, 63 days after treatment): 2.62 t/ha
- Difference(%) vs. UTC ([7]; winter wheat grain yield, 100 g ai/ha preemergence): +11%
- Relative % ([7]; winter wheat grain yield, 100 g ai/ha preemergence, UTC = 100%): 111%
- Yield (grain yield at harvest) ([7]; winter wheat, preemergence autumn, 100 g ai/ha, 247 days after application): 5.88 t/ha
- Difference(%) vs. UTC ([8]; rice grain yield, sequential application): +5%
- Relative ([8]; rice grain yield, sequential application, UTC = 100%): 105%
- Yield (grain yield at harvest) ([8]; rice, 0.5 g ai/kg seed fb 3 × 50 g ai/ha post, 75 days after last application): 5.74 t/ha
- Difference(%) vs. UTC ([9]; canola grain yield, sequential application): +24%
- Relative ([9]; canola grain yield, sequential application, UTC = 100%): 124%
- Yield (grain yield at harvest) ([9]; canola, 0.5 g ai/kg seed fb 3 × 50 g ai/ha post (4-6 leaves, stem elongation, beginning of flowering), 63 days after application): 3.47 t/ha
- Difference(%) vs. UTC ([10]; corn grain yield, sequential application): +38%
- Relative ([10]; corn grain yield, sequential application, UTC = 100%): 138%
- Yield (grain yield at harvest) ([10]; corn, 0.15 g ai/kg seed fb 3 × 50 g ai/ha post (2-4 leaves, 6-8 leaves, preflowering), 98 days after emergence): 14.1 t/ha
- Yield: Biomass yield at harvest ([11]; UTC 6.0): 7.5 t/ha
- Yield: Plant density at harvest ([11]; UTC 14): 17.3 plants/sqm
- Difference(%) vs. UTC ([12]; spring wheat grain yield, 100 g ai/ha postemergence): +8%
- Yield (grain yield at harvest) ([12]; spring wheat, postemergence at beginning of emergence of the ears (GS49), 100 g ai/ha, 48 days after application): 3.83 t/ha
- Difference(%) vs. UTC ([13]; soybean grain yield): +5%
- Relative ([13]; soybean grain yield, UTC = 100%): 105%
- Yield (grain yield at harvest) ([13]; soybeans, postemergence preflowering (GS 60), 45 days after application): 2.78 t/ha
- Difference(%) vs. UTC ([14]; cotton lint yield): +16%
- Relative ([14]; cotton lint yield, UTC = 100%): 116%
- Yield t/ha (lint) ([14]; cotton lints at harvest, postemergence preflowering (GS 55), 90 days after application): 0.254 t/ha
- Yield of beets (storage root/body) by weight at harvest ([15]; UTC 59.3): 61.3 t/ha
- Sugar Yield at harvest ([15]; UTC 5778): 6110 kg/ha

SMILES: Fc1ccc([C@]2(Cn3cncn3)O[C@H]2c2ccccc2Cl)cc1 (racemic) [EPC, epoxiconazole]
- Difference(%) vs. UTC ([16]; spring wheat grain yield, EPC 125, CPA + EPC 100 + 125 g ai/ha): +9.7%
- Relative % ([16]; spring wheat grain yield, EPC 125, CPA + EPC 100 + 125 g ai/ha, UTC = 100%): 109.7%^
- Yield (grain yield at harvest) ([16]; spring wheat, post-emergence spring, flag leaf sheath opening, EPC 125 g ai/ha, CPA + EPC 100 + 125 g ai/ha, 55 days after application, UTC 1.84): 2.02 t/ha

SMILES: CC(C)(C)C(O)(CCc1ccc(Cl)cc1)Cn1cncn1 (centres unmarked) [TBC, tebuconazole]
- Difference(%) vs. UTC ([17]; canola grain yield, TBC 150, CPA + TBC 100 + 150 g ai/ha): +1.8%
- Relative % ([17]; canola grain yield, TBC 150, CPA + TBC 100 + 150 g ai/ha, UTC = 100%): 101.8%
- Yield (grain yield at harvest) ([17]; spring oilseed rape (canola), post-emergence spring, beginning of flowering, TBC 150 g ai/ha, CPA + TBC 100 + 150 g ai/ha, 92 days after application, UTC 3.91): 3.91 t/ha
